Laboratory results reported in patent US20060134017A1, “Oral treatment compositions containing an anti-adhesion agent, antibacterial agent and incompatible compound” (Colgate-Palmolive Company, priority 2004, published 2006).

B1: Papain: cysteine protease enzyme obtained from the fruit and leaves of Carica papaya (EDC papain) (protein, UniProt P00784 134-345, looked up)
Papain: IPEYVDWRQKGAVTPVKNQGSCGSCWAFSAVVTIEGIIKIRTGNLNEYSEQELLDCDRRSYGCNGGYPWSALQLVAQYGIHYRNTYPYEGVQRYCRSREKGPYAAKTDGVRQVQPYNEGALLYSIANQPVSVVLEAAGKDFQLYRGGIFVGPCGNKVDHAVAAVGYGPNYILIKNSWGTGWGENGYIRIKRGTGNSYGVCGLYTSSFYPVKN

Tests used:
[1] = generic protease activity assay (Panvera); type: biochemical; conditions: neat powder, 40° C., neutral pH; +/-3
Method: The activity of proteases was evaluated using generic protease assay from Panvera at 40° C. and neutral pH. The activity was assessed relative to papain on an equal weight basis of neat powder samples. Krillase protease enzymes are a mixture of eight different proteases; thus, the activity of any one of the eight was not discernable by the present assay. The assay aided in determining dose for the dose response studies. In clinical formulations, enzymes were dosed based on an equal weight basis. Table 2 gives the relative activity of neat enzymes.

[2] = test system: oral bacteria culture on saliva-coated hydropxyapatite (SHAP) disks; assay: Artificial Mouth anti-attachment efficacy model (chemostat flow cell, SHAP disks); type: cell-based; conditions: for anti-adhesion efficacy, ranking of in vitro results: toothpaste formulas; for anti-adhesion efficacy relative to matching negative control paste (statistical analysis): toothpaste with 0.226 weight percent protease, ABS610 after 24 hours
Description: To test the efficacy of the actives in toothpaste formulas, the Artificial Mouth model was utilized. This is generally described in Herles, S., S. Olsen, et al. (1994). “Chemostat flow cell system: an in vitro model for the evaluation of antiplaque agents.” J Dent Res 73(11): 1748-55. The Artificial Mouth model is a flow system that simulates the human mouth. Saliva-coated hydropxyapatite (SHAP) disks served as the artificial teeth, and a bacteria culture consisting of the main oral bacteria in humans flowed through the system at a speed consistent with the in vivo human saliva. Eight disks for each treatment were then placed in the chemostat flow cell and oral bacteria culture was allowed to flow through the disks overnight (20-24 hours) to see if actives coated on the disk surfaces would prevent bio-film formation. After 24 hours the SHAP disks were removed and amount of bacteria quantified. The ABS610 of the solutions were then measured and analyzed. […] From this value, the percentage anti-adhesion effectiveness of the pastes is evaluated relative to a matching negative control. Two concentrations of protease were tested for each of the three protease; namely. 0.226 weight percent and 0.065 weight percent.

| Molecule | Activity by protease assay [1] | anti-adhesion efficacy, ranking of in vitro results [2] | anti-adhesion efficacy relative to matching negative control paste (statistical analysis) [2] |
| --- | --- | --- | --- |
| Ficin | 23 CPU/g | better then the papain | showed efficacy |
| B1 | 25 CPU/g | better then the matching placebo paste | showed efficacy |
